Measured values published in patent US11767353B2, “Trail compositions with reduced immunogenicity” (Theraly Fibrosis, Inc., priority 2020, dated 2023).

How the values were obtained:
[1] = test system: orthotopic xenografts of mouse KPC cells (UN-KPC-960); experiment: Orthotopic pancreatic xenografts of mouse KPC cells in B6.129 mice; assay type: in vivo
Procedure: To generate the solid tumor, 10^7 of mouse pancreatic ductal adenocarcinoma UN-KPC-960-luc2 cells suspended in 100 μl PBS were inoculated into flank of syngeneic B6.129 mice. The KPC tumors from the donor mice were excised under sterile conditions once the tumor was grown up to […] in diameter. The donor tumors were cut into 1-1.5 mm^3 pieces using surgical blade.
For the orthotopic xenograted tumors in pancreas, a laparotomy via left flank incision was performed to expose the pancreatic head and donor tumor pieces were inserted into the pancreas of recipient B6.129 mice (n=7/group) followed by closing in two layers with 5-0 absorbable sutures. Two weeks after the tumor transplantation, mice were injected with TLY012 via intraperitoneal route (10 mg/kg, every other day) and/or anti-PD-L1 (B7-H1, anti-mouse PD-L1, 2.5 mg/kg, twice of a week) for 2 weeks. Transplanted animals were imaged once a week for 5 weeks. Bioluminescent images using IVIS were acquired 10-15 minutes after intraperitoneal administration of D-Luciferin (150 mg/kg) (GOLDBIO, St. Louis, Mo., USA).
For tumor volume studies, orthotopic xenograted tumors were generated in pancreas. A laparotomy via left flank incision was performed to expose the pancreatic head and 5×10^6 of UN-KPC-960 cells were transplanted into the pancreas of recipient B6.129 mice (n=5/group) followed by closing in two layers with 5-0 absorbable sutures. four weeks after the transplantation, mice were injected with TLY012 via intraperitoneal route (10 mg/kg, every other day) or saline for 2 weeks. Then excised tumors were studied by: a) captured image and tumor volume of ½ab^2, and b) measured collagen and α-SMA positive area after TLY012 treatment using Sirius red and anti-α-SMA staining
Paraffin sectioned KPC tumor samples were used for immunofluorescence staining (IF) stain with α-SMA and either CD4 or CD8. Tissues were deparaffinized, hydrated, and heated in citrate buffer (Thermo Fisher Scientific) by microwave for antigen retrieval. Slides were washed, treated with blocking solution (3% of normal horse serum, Vectastain ABC System, Vector Labs, Burlingame, Calif.), and primary antibodies, rabbit anti-CD4 antibody (Abcam, ab183685) or rabbit anti-CD8 antibody (Abcam, ab217344) were applied with mouse anti-α-SMA antibody. Tissues were incubated overnight at 4° C., washed and anti-rabbit IgG conjugated with Alexa fluor 488 and anti-mouse IgG conjugated with Alexa fluor 633 (Thermo Fisher Scientific) were applied and incubated at room temperature. After washing the slides, samples were mounted with Fluorescence Mounting Medium with DAPI and captured under Axiovert microscope (Carl Zeiss Microscopy, LLC. Thornwood, N.Y.).
The excised tumors were immediately fixed in 10% buffered formalin, embedded in paraffin, and cut at 4 μm thickness. The sections were then stained for Masson's Trichrome or Sirius-Red staining for determining the collagen deposition. Stained tissues were imaged under a light microscope (Nikon Eclipse E600 connected with Nikon DS-Fi2 camera, Nikon USA). Stained pancreatic tissues were randomly selected 10 photos from individual mice, and the positively stained area was quantified using Image J software (NIH, Bethesda, Md.).

[2] = test system: Pancreatic cancer associated fibroblasts (CAF08)
Procedure: Pancreatic cancer associated fibroblasts (CAF08) and maintenance media (PC00B5) were obtained from Vitro Biopharma. 100 of PSCs were culture-activated for 7 to have the confluent population of activated cells or 2×10^4 cells of CAF08 were cultured on a 96 well microplate (Corning, CLS3917) for 24h and were incubated with TLY012 (at 30 ng/ml or 100 ng/ml) for 3h. After incubation, 50 μL of Caspase 3/7 substrate/lysis buffer was added to each well and incubated for 30 min after 30 min of equilibration period to room temperature. The luminescence of each sample was measured on a plate reader (Bio-Tek Instruments Inc) with parameters of 1 min lag time and 0.5 sec/well-read time (n=3).
For immunoblot, 100 of PSCs were culture activated on a 6 well plate for 7 days or 2×10^5 of CAF08 cells were plated on 6-well plates followed by control treatment or treatment with TLY012 (at 30 ng/ml or 100 ng/ml) for 3h. The lysates from the cells were tested for the presence of Cl.PARP-1 and SMA using Western bot.
Pancreatic cancer associated fibroblasts (CAF08) and maintenance media (PC00B5) were obtained from Vitro Biopharma and maintained in Pancreatic Stellate CAF maintenance media (Vitro Biopharma, Cat. No. PC00B5).
After incubation, 50 uL of Caspase 3/7 substrate/lysis buffer from Caspase3/7 Glo assay kit (Promega, Madison USA) was added to each well and incubated for 30 min after 30 min of equilibration period to room temperature. The luminescence of each sample was measured on a plate reader (Bio-Tek Instruments Inc) with parameters of 1 min lag time and 0.5 sec/well-read time (n=3).
For Western blot, 2×10^5 cells were plated on 6-well plates and were incubated with the same cytotoxic agents as indicated followed by Western blot detection of Cl.PARP-1, PD-L1, DR5, DR4, α-SMA, and β-actin.

## TLY012: PEGylated (5 kDa PEG-aldehyde) recombinant human TRAIL (114-281) fused to modified isoleucine zipper (miLZ) at N-terminus; SEQ ID NO:30 trimer
[1]; Day 0
  Percent survival: 100%
[1]; Day 14
  Bioluminescence activity (Total Counts), Mean: 72300 Total Counts
[1]; Day 21
  Bioluminescence activity (Total Counts), Mean: 233157.143 Total Counts
[1]; Day 28
  Bioluminescence activity (Total Counts), Mean: 185128.571 Total Counts
[1]; Day 35
  Bioluminescence activity (Total Counts), Mean: 390357.143 Total Counts
  Percent survival: 100%
[1]; TLY012 i.p. 10 mg/kg every other day and/or anti-PD-L1 2.5 mg/kg twice a week, 2 weeks
  tumor volume, Average: 135.0695 mm3
[1]; TLY012 i.p. 10 mg/kg every other day for 2 weeks
  levels of collagen (fibrosis), immunohistochemistry: decreased the levels of collagen
[1]; TLY012 i.p. 10 mg/kg every other day for 2 weeks, FIG. 14
  tumor volume compared to the saline-treated group: reduced the tumor volume
[1]; double immunofluorescence staining, vs saline
  cytotoxic T cell (CD4, CD8) infiltration to the tumor site: enhanced cytotoxic T cell infiltration to the tumor site
[2]; TLY012 30 or 100 ng/ml for 3h
  Cl.PARP-1, immunoblot: detected
[2]; TLY012 30 or 100 ng/ml for 3h, vs control treatment
  caspase 3/7 activity (RLU): activated caspase 3/7
[2]; pancreatic CAF
  protein levels of α-SMA, Western blotting: significantly decreased
